Here are results for 18 molecules from US20060241114A1, “Derivatives of azasugars as anticancer agents” (priority 2003, published 2006).

In experiment [1] the test system is HT29 (colorectal adenocarcinoma). Kind of experiment: In vitro growth inhibition screen (sulphorhodamine B), HT29. The experiment is classed as cell-based, human. The note with it: HT29 cells, incubated for 48 hours, sulphorhodamine B dye; read-out: GI50 (concentration which inhibits the cell growth by 50%), HT29 Colorectal adenocarcinoma. The method in brief:
(§1)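 GI50 values come from a 48 h sulphorhodamine B growth assay in RPMI 1640 containing 10% fetal calf serum, with test concentrations spanning ten-fold dilutions from ≧100 μM to 10 nM. Doxorubicin served as positive control.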

The test system of experiment [2] is MCF7ADR (adriamycin resistant breast adenocarcinoma). Kind of experiment: In vitro growth inhibition screen (sulphorhodamine B), MCF7ADR. The experiment is classed as cell-based, human. The conditions noted are these: MCF7ADR cells, incubated for 48 hours, sulphorhodamine B dye; read-out: GI50 (concentration which inhibits the cell growth by 50%), MCF7ADR Adriamycin Resistant Breast adenocarcinoma. A digest of the protocol:
as §1
On the technique in general: Sulforhodamine B stains cellular protein and so reports cell mass.

For experiment [3], the system named is LOX (melanoma). Put plainly: In vitro growth inhibition screen (sulphorhodamine B), LOX. The experiment is classed as cell-based, human. The note with it: LOX cells, incubated for 48 hours, sulphorhodamine B dye; read-out: GI50 (concentration which inhibits the cell growth by 50%), LOX Melanoma. A digest of the protocol:
as §1

Experiment [4] concerns DU145 (prostate carcinoma). Kind of experiment: In vitro growth inhibition screen (sulphorhodamine B), DU145. The conditions noted are these: DU145 cells, incubated for 48 hours, sulphorhodamine B dye; read-out: GI50 (concentration which inhibits the cell growth by 50%), DU145 Prostate carcinoma. The experiment is classed as cell-based, human. A digest of the protocol:
as §1

Experiment [5] has as its system U251 (human glioblastoma). Put plainly: In vitro growth inhibition screen (sulphorhodamine B), U251. The experiment is classed as cell-based. The note with it: U251 cells, incubated for 48 hours, sulphorhodamine B dye; read-out: GI50 (concentration which inhibits the cell growth by 50%), U251 Human glioblastoma astrocytoma. The method in brief: as §1
Experiment [6] concerns MCF7 (breast adenocarcinoma). Put plainly: In vitro growth inhibition screen (sulphorhodamine B), MCF7. The experiment is classed as cell-based, human. The conditions noted are these: MCF7 cells, incubated for 48 hours, sulphorhodamine B dye; read-out: GI50 (concentration which inhibits the cell growth by 50%), MCF7 Breast adenocarcinoma. A digest of the protocol: as §1

Each structure is given as a SMILES string. A value given as a limit tells only on which side of the number the result lay.

`CCCN1C(=O)[C@H](OCc2ccccc2)[C@@H](OCc2ccccc2)[C@H](OCc2ccccc2)[C@H]1CNC(=O)Nc1ccc(Cl)c(Cl)c1` [Compound No. 18, 2,3,4-Tri-O-benzyl-6-N-{[3,4-dichlorophenyl]aminocarbonylamino}-N-propyl-D-gluco-δ-lactam]: the GI50 in experiment [1] stood at 2.2 µM; in experiment [2], 2.9 µM; in experiment [3], 2 µM; in experiment [4], 2.5 µM; in experiment [5] it was 2.6 µM; in experiment [6] it was 2 µM.
For `CCCN1C(=O)[C@H](OCc2ccccc2)[C@@H](OCc2ccccc2)[C@H](OCc2ccccc2)[C@H]1CNC(=O)N1CC2C(C1)C2NC(C)=O` (stereo partly drawn) [Compound No. 79, 2,3,4-Tri-O-benzyl-6-N-{(1α,5α,6α)-6-acetylamino-azabicyclo[3.1.0]hexylcarboxamido}-N-propyl-D-gluco-δ-lactam], the GI50 stood at 21.8 µM in experiment [1]; 17.9 µM in experiment [2]; 7.4 µM in experiment [3]; 18.9 µM in experiment [4]; 15.5 µM in experiment [5]; 18.2 µM in experiment [6].
For the molecule `CCCN1C(=O)[C@H](OC(C)=O)[C@@H](OC(C)=O)[C@H](OC(C)=O)[C@H]1CNC(=O)Nc1ccc(OC)cc1` [Compound No. 32, 2,3,4-Tri-O-acetyl-6-N-{[4-methoxyphenyl]aminocarbonylamino}-N-propyl-D-gluco-δ-lactam], the GI50 in experiment [1] was found to be 37.7 µM; in experiment [2], 94.4 µM; in experiment [3], 87.4 µM; in experiment [4], 55.3 µM; in experiment [5], 62 µM; in experiment [6], 74.8 µM.
As for `CCCN1C(=O)[C@H](OCc2ccccc2)[C@@H](OCc2ccccc2)[C@H](OCc2ccccc2)[C@H]1CNC(=O)Nc1ccc(F)cc1` [Compound No. 11, 2,3,4-Tri-O-benzyl-6-N-{[p-fluorophenyl]aminocarbonylamino}-N-propyl-D-gluco-δ-lactam], the GI50 in experiment [1] was found to be 2.7 µM; in experiment [2], 2.6 µM; in experiment [3], 2.1 µM; in experiment [4] it was 2.7 µM; in experiment [5], 3.2 µM; in experiment [6] it was 2.4 µM.
Consider `C=CCN1C(=O)C(OCc2ccccc2)C(OCc2ccccc2)C(OCc2ccccc2)C1Cn1ncn(-c2ccc(Cl)cc2)c1=O` [Compound No. 81, 2,3,4-Tri-O-benzyl-6-[4-chlorophenyl-3(2H,4H)-1,2,4-triazol-3-onyl]-N-allyl-D-gluco-δ-lactam], for which the GI50 in experiment [1] was 49.5 µM; in experiment [2], 77 µM; in experiment [3], 11.9 µM; in experiment [4], 70.1 µM; in experiment [5] it was more than 250 µM; in experiment [6] it was 102 µM.
As for `CCCN1C[C@H](OCc2ccccc2)[C@@H](OCc2ccccc2)[C@H](OCc2ccccc2)[C@H]1CNC(=S)Nc1ccc(Cl)cc1` [Compound No. 39, 2,3,4-Tri-O-benzyl-6-N-{[4-chlorophenyl]aminothiocarbonylamino}-1,5-dideoxy-1,5-imino-N-propyl glucitol], the GI50 in experiment [1] was determined as 20.6 µM; in experiment [2], 52.7 µM; in experiment [3], 103 µM; in experiment [4] it was 72.7 µM; in experiment [5] it was 31.9 µM; in experiment [6], 16.1 µM.
`CCCN1C(=O)[C@H](O[Si](C)(C)C)[C@@H](O[Si](C)(C)C)[C@H](O[Si](C)(C)C)[C@H]1CNC(=O)Nc1ccccc1` [Compound No. 35, 2,3,4-Tri-O-trimethylsilyl-6-N-{[phenyl]aminocarbonylamino}-N-propyl-D-gluco-δ-lactam]: the GI50 in experiment [1] was 19.4 µM; in experiment [2], 9.3 µM; in experiment [3], 8 µM; in experiment [4], 14 µM; in experiment [5], 5.8 µM; in experiment [6], 7.6 µM.
On to `CCCN1C(=O)[C@H](OCc2ccccc2)[C@@H](OCc2ccccc2)[C@H](OCc2ccccc2)[C@H]1COc1nc(Cl)nc(Cl)n1` [Compound No. 90, 2,3,4-Tri-O-benzyl-6-O-(4,6-dichloro-1,3,5-triazin-1-yl)-N-propyl-D-gluco-δ-lactam], for which the GI50 in experiment [1] was 37.1 µM; in experiment [2], 18.7 µM; in experiment [3] it was 14.4 µM; in experiment [4] it was 16.7 µM; in experiment [5], 52.8 µM; in experiment [6] it was 35.4 µM.
Regarding `CCCN1C(=O)[C@H](OCc2ccccc2)[C@@H](OCc2ccccc2)[C@H](OCc2ccccc2)[C@H]1CNC(=S)Nc1ccc(Cl)cc1` [Compound No. 21, 2,3,4-Tri-O-benzyl-6-N-{[4-chlorophenyl]aminothiocarbonylamino}-N-propyl-D-gluco-δ-lactam], the GI50 came to 2 µM in experiment [1]; 3.4 µM in experiment [2]; 2.9 µM in experiment [3]; 6.5 µM in experiment [4]; 3.6 µM in experiment [5]; 2.4 µM in experiment [6].
Regarding `CCCN1C(=O)[C@H](OCc2ccccc2)[C@@H](OCc2ccccc2)[C@H](OCc2ccccc2)[C@H]1CNC(=O)CN1CCN(c2ccc(F)cc2)CC1` [Compound No. 58, 2,3,4-Tri-O-benzyl-6-N-{2-[4-(4-fluorophenyl)-piperazin-1-yl]acetyl}-N-propyl-D-gluco-δ-lactam], the GI50 in experiment [1] came to 7.9 µM; in experiment [2], 10.2 µM; in experiment [3], 2.8 µM; in experiment [4], 19.4 µM; in experiment [5], 13.4 µM; in experiment [6], 8.2 µM.
With `CCCN1C(=O)[C@H](OCc2ccccc2)[C@@H](OCc2ccccc2)[C@H](OCc2ccccc2)[C@H]1CNC(=O)CN1C(=O)c2ccccc2C1=O` [Compound No. 63], the GI50 in experiment [1] was 42 µM; in experiment [2], 246 µM; in experiment [3], 55.3 µM; in experiment [4], 60.6 µM; in experiment [5], 117 µM; in experiment [6], 66.8 µM.
As to `CCCN1C(=O)[C@H](O)[C@@H](O)[C@H](O)[C@H]1CNC(=O)CN1CCN(C)CC1` [Compound No. 68, 6-N-{2-[(N-Methyl)piperazinyl]acetyl}-N-propyl-D-gluco-δ-lactam], the GI50 in experiment [1] is 14.1 µM; in experiment [2], 27.7 µM; in experiment [3], 48.2 µM; in experiment [4] it was 39 µM; in experiment [5], 22 µM; in experiment [6], 32.4 µM.
For `CCCN1C(=O)[C@H](O)[C@@H](O)[C@H](O)[C@H]1CNC(=O)Nc1ccc(C)cc1` [Compound No. 26, 6-N-{[p-Tolyl]aminocarbonylamino}-N-propyl-D-gluco-δ-lactam], the GI50 amounted to 209 µM in experiment [1]; 235 µM in experiment [2]; 116 µM in experiment [3]; 278 µM in experiment [4]; 520 µM in experiment [5]; 136 µM in experiment [6].
For `C=CCN1C(=O)[C@H](OCc2ccccc2)[C@@H](OCc2ccccc2)[C@H](OCc2ccccc2)[C@H]1COC(=O)c1cccs1` [Compound No. 45], the GI50 in experiment [1] was 92.9 µM; in experiment [2], more than 419 µM; in experiment [3], more than 419 µM; in experiment [4], 148 µM; in experiment [5] it was more than 419 µM; in experiment [6] it was 397 µM.
For `CCCN1C(=O)C(OC(C)=O)C(OC(C)=O)C(OC(C)=O)C1CNC(=O)Nc1ccc(F)cc1` [Compound No. 34, 2,3,4-Tri-O-acetyl-6-N-{[4-fluorophenyl]aminocarbonylamino}-N-propyl-D-gluco-δ-lactam], the GI50 in experiment [1] stood at 38.4 µM; in experiment [2], 63.4 µM; in experiment [3] it was 130 µM; in experiment [4], 78.2 µM; in experiment [5] it was 28.3 µM; in experiment [6], 26.1 µM.
Turning to `CCCN1C(=O)[C@H](O)[C@@H](O)[C@H](O)[C@H]1CNC(=O)Nc1ccc(OC)cc1` [Compound No. 27, 6-N-{[p-Methoxyphenyl]aminocarbonylamino}-N-propyl-D-gluco-δ-lactam], the GI50 was 232 µM in experiment [1]; 481 µM in experiment [2]; 193 µM in experiment [3]; 413 µM in experiment [4]; 323 µM in experiment [5]; 214 µM in experiment [6].
`CCCN1C(=O)[C@H](OCc2ccccc2)[C@@H](OCc2ccccc2)[C@H](OCc2ccccc2)[C@H]1CNC(=O)Nc1ccc(Cl)cc1C(F)(F)F` [Compound No. 7, 2,3,4-Tri-O-benzyl-6-N-{[4-chloro-2-trifluoromethylphenyl]aminocarbonylamino}-N-propyl-D-gluco-δ-lactam]: the GI50 is 68.6 µM in experiment [1]; 58.4 µM in experiment [2]; 10.8 µM in experiment [3]; more than 353 µM in experiment [4]; 63.5 µM in experiment [5]; more than 353 µM in experiment [6].
For `CCCN1C(=O)C(OCc2ccccc2)C(OCc2ccccc2)C(OCc2ccccc2)C1CNC(=O)Nc1cc(Cl)ccc1OC` [Compound No. 15, 2,3,4-Tri-O-benzyl-6-N-{[3-chloro-6-methoxyphenyl]aminocarbonylamino}-N-propyl-D-gluco-δ-lactam], the GI50 in experiment [1] was 41.9 µM; in experiment [2], 53.8 µM; in experiment [3] it was 57.2 µM; in experiment [4], 44.4 µM; in experiment [5] it was 40.8 µM; in experiment [6] it was 29.9 µM.
